These are literature values, as cited in patent US11969487B2, “Non-cellular root canal filling material and non-cellular dental tissue regeneration promoting kit” (Kowa Company, Ltd., priority 2017, dated 2024).

Like-named read-outs stand apart in the source and are kept apart here.

Data set [1] concerns dental pulp regeneration in dogs.
The subject of data set [2] is dental pulp stem cells on dentin surfaces. As to conditions: dental pulp stem cells seeded on treated dentin surfaces in vitro.

On to trypsin, for which, in data set [1] (no transplantation of dental pulp stem cells), the dental pulp regeneration result is recorded as “hardly observed”. The dental pulp regeneration result in data set [1] (root canals pretreated before dental pulp stem cell transplantation, middle-aged and elderly individuals) is “promoted”. Moreover, the “effect of pretreatment on the dental pulp regeneration” value in data set [1] (young dogs) is given as “no effect”. Besides, in data set [2], the “adhesion of the cells” value is on record as “increased” and the differentiation into odontoblasts result is “promotion of differentiation into odontoblasts was observed”.
